Reference: PubChem BioAssay AID2060891 (Molecular Pharmacology Branch, DTP, NCI, 2025)

Test system: K98450-129-R-PDC complex spheroid growth, percent test/control
Assay: Anticancer human tumor K98450-129-R-PDC patient-derived colon adenocarcinoma cell line growth inhibition [RAS]
Details: for IC50: curve of first compound; for viability, T/C: stronger effect = lower value
In short: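 Tumour cells grown as complex spheroids with HUVEC endothelial cells and mesenchymal stem cells, treated with RAS pathway inhibitor combinations. Each agent spans half-log steps from near clinical Cmax, or 10 microM where Cmax is unknown.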

[1] = second compound 0.00316 µM, first compound 0.0316 µM
[2] = second compound 0.00316 µM, first compound 0.1 µM
[3] = second compound 0.00316 µM, first compound 0.316 µM
[4] = second compound 0.00316 µM, first compound 1 µM
[5] = second compound 0.01 µM, first compound 0.0316 µM
[6] = second compound 0.01 µM, first compound 0.1 µM
[7] = second compound 0.01 µM, first compound 0.316 µM
[8] = second compound 0.01 µM, first compound 1 µM
[9] = second compound 0.0316 µM, first compound 0.0316 µM
[10] = second compound 0.0316 µM, first compound 0.1 µM
[11] = second compound 0.0316 µM, first compound 0.316 µM
[12] = second compound 0.0316 µM, first compound 1 µM
[13] = second compound 0.1 µM, first compound 0.0316 µM
[14] = second compound 0.1 µM, first compound 0.1 µM
[15] = second compound 0.1 µM, first compound 0.316 µM
[16] = second compound 0.1 µM, first compound 1 µM
[17] = second compound 0.316 µM, first compound 0.0316 µM
[18] = second compound 0.316 µM, first compound 0.1 µM
[19] = second compound 0.316 µM, first compound 0.316 µM
[20] = second compound 0.316 µM, first compound 1 µM
[21] = second compound 1 µM, first compound 0.0316 µM
[22] = second compound 1 µM, first compound 0.1 µM
[23] = second compound 1 µM, first compound 0.316 µM
[24] = second compound 1 µM, first compound 1 µM
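Also: spheroids exposed to agents for seven days before the viability readout.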
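For viability, T/C in this document: luminescence used as a proxy for viable cell amount.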

## C[C@@H](NC(=O)c1ncnc(N)c1Cl)c1ncc(C(=O)Nc2cc(C(F)(F)F)c(Cl)cn2)s1 + C=CC(=O)N1CCN(c2nc(OCC3CCCN3C)nc3c(F)c(-c4nc(N)cc(C)c4C(F)(F)F)c(Cl)cc23)C(C)C1
Second compound 0.00316 µM
  IC50: > 10 µM
Second compound 0.01 µM
  IC50: > 10 µM
Second compound 0.0316 µM
  IC50: > 10 µM
Second compound 0.1 µM
  IC50: > 10 µM
Second compound 0.316 µM
  IC50: < 0.0316 µM
Second compound 1 µM
  IC50: < 0.0316 µM
[1]
  viability, T/C: 101%
[2]
  viability, T/C: 98.6%
[3]
  viability, T/C: 102%
[4]
  viability, T/C: 108%
Second compound 0.00316 µM, first compound 3.16 µM
  viability, T/C: 115%
Second compound 0.00316 µM, first compound 10 µM
  viability, T/C: 94%
[5]
  viability, T/C: 91.2%
[6]
  viability, T/C: 92.5%
[7]
  viability, T/C: 89.5%
[8]
  viability, T/C: 97.4%
Second compound 0.01 µM, first compound 3.16 µM
  viability, T/C: 94.3%
Second compound 0.01 µM, first compound 10 µM
  viability, T/C: 80.1%
[9]
  viability, T/C: 76.3%
[10]
  viability, T/C: 80.2%
[11]
  viability, T/C: 76.3%
[12]
  viability, T/C: 77.2%
Second compound 0.0316 µM, first compound 3.16 µM
  viability, T/C: 80%
Second compound 0.0316 µM, first compound 10 µM
  viability, T/C: 65.1%
[13]
  viability, T/C: 63.8%
[14]
  viability, T/C: 66.6%
[15]
  viability, T/C: 59.2%
[16]
  viability, T/C: 64.8%
Second compound 0.1 µM, first compound 3.16 µM
  viability, T/C: 69.9%
Second compound 0.1 µM, first compound 10 µM
  viability, T/C: 56.3%
[17]
  viability, T/C: 44.2%
[18]
  viability, T/C: 50.4%
[19]
  viability, T/C: 52.1%
[20]
  viability, T/C: 49.9%
Second compound 0.316 µM, first compound 3.16 µM
  viability, T/C: 57%
Second compound 0.316 µM, first compound 10 µM
  viability, T/C: 46.1%
[21]
  viability, T/C: 37.1%
[22]
  viability, T/C: 41.3%
[23]
  viability, T/C: 44.6%
[24]
  viability, T/C: 44.6%
Second compound 1 µM, first compound 3.16 µM
  viability, T/C: 49.7%
Second compound 1 µM, first compound 10 µM
  viability, T/C: 43.5%

## CCN1CCN(Cc2ccc(Nc3ncc(F)c(-c4cc(F)c5nc(C)n(C(C)C)c5c4)n3)nc2)CC1 + C=CC(=O)N1CCN(c2nc(OCC3CCCN3C)nc3c(F)c(-c4nc(N)cc(C)c4C(F)(F)F)c(Cl)cc23)C(C)C1
Second compound 0.00316 µM
  IC50: 0.512 µM
Second compound 0.01 µM
  IC50: 0.177 µM
Second compound 0.0316 µM
  IC50: 0.0657 µM
Second compound 0.1 µM
  IC50: 0.0206 µM
Second compound 0.316 µM
  IC50: < 0.00316 µM
Second compound 1 µM
  IC50: < 0.00316 µM
Second compound 0.00316 µM, first compound 0.00316 µM
  viability, T/C: 95%
Second compound 0.00316 µM, first compound 0.01 µM
  viability, T/C: 97.3%
[1]
  viability, T/C: 81.8%
[2]
  viability, T/C: 75.2%
[3]
  viability, T/C: 48.7%
[4]
  viability, T/C: 47.8%
Second compound 0.01 µM, first compound 0.00316 µM
  viability, T/C: 90.8%
Second compound 0.01 µM, first compound 0.01 µM
  viability, T/C: 86.8%
[5]
  viability, T/C: 73.7%
[6]
  viability, T/C: 57.8%
[7]
  viability, T/C: 42.3%
[8]
  viability, T/C: 36.2%
Second compound 0.0316 µM, first compound 0.00316 µM
  viability, T/C: 73.3%
Second compound 0.0316 µM, first compound 0.01 µM
  viability, T/C: 68.3%
[9]
  viability, T/C: 62.5%
[10]
  viability, T/C: 43.2%
[11]
  viability, T/C: 32.4%
[12]
  viability, T/C: 31.9%
Second compound 0.1 µM, first compound 0.00316 µM
  viability, T/C: 60.2%
Second compound 0.1 µM, first compound 0.01 µM
  viability, T/C: 55.1%
[13]
  viability, T/C: 46.6%
[14]
  viability, T/C: 36.6%
[15]
  viability, T/C: 27%
[16]
  viability, T/C: 29.2%
Second compound 0.316 µM, first compound 0.00316 µM
  viability, T/C: 44.4%
Second compound 0.316 µM, first compound 0.01 µM
  viability, T/C: 41.2%
[17]
  viability, T/C: 33.1%
[18]
  viability, T/C: 27.9%
[19]
  viability, T/C: 24.2%
[20]
  viability, T/C: 28.4%
Second compound 1 µM, first compound 0.00316 µM
  viability, T/C: 31.8%
Second compound 1 µM, first compound 0.01 µM
  viability, T/C: 32.1%
[21]
  viability, T/C: 28.7%
[22]
  viability, T/C: 24.3%
[23]
  viability, T/C: 24.6%
[24]
  viability, T/C: 29.2%
